Reference: PubChem BioAssay AID2060903 (Molecular Pharmacology Branch, DTP, NCI, 2025)

Tested on: 377384-186-R-J1-PDC complex spheroid viability
Test: Anticancer human tumor 377384-186-R-J1-PDC patient-derived pancreatic carcinoma cell line growth inhibition [RAS]
Details: for IC50: curve of first compound; for viability, T/C: stronger effect = lower value
Method in brief: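 Tumour cells grown as complex spheroids with HUVEC endothelial cells and mesenchymal stem cells, treated with RAS pathway inhibitor combinations. Each agent spans half-log steps from near clinical Cmax, or 10 microM where Cmax is unknown.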

[1] = second compound 0.00316 µM, first compound 0.0316 µM
[2] = second compound 0.00316 µM, first compound 0.1 µM
[3] = second compound 0.00316 µM, first compound 0.316 µM
[4] = second compound 0.00316 µM, first compound 1 µM
[5] = second compound 0.00316 µM, first compound 3.16 µM
[6] = second compound 0.00316 µM, first compound 10 µM
[7] = second compound 0.01 µM, first compound 0.0316 µM
[8] = second compound 0.01 µM, first compound 0.1 µM
[9] = second compound 0.01 µM, first compound 0.316 µM
[10] = second compound 0.01 µM, first compound 1 µM
[11] = second compound 0.01 µM, first compound 3.16 µM
[12] = second compound 0.01 µM, first compound 10 µM
[13] = second compound 0.0316 µM, first compound 0.0316 µM
[14] = second compound 0.0316 µM, first compound 0.1 µM
[15] = second compound 0.0316 µM, first compound 0.316 µM
[16] = second compound 0.0316 µM, first compound 1 µM
[17] = second compound 0.0316 µM, first compound 3.16 µM
[18] = second compound 0.0316 µM, first compound 10 µM
[19] = second compound 0.1 µM, first compound 0.0316 µM
[20] = second compound 0.1 µM, first compound 0.1 µM
[21] = second compound 0.1 µM, first compound 0.316 µM
[22] = second compound 0.1 µM, first compound 1 µM
[23] = second compound 0.1 µM, first compound 3.16 µM
[24] = second compound 0.1 µM, first compound 10 µM
[25] = second compound 0.316 µM, first compound 0.0316 µM
[26] = second compound 0.316 µM, first compound 0.1 µM
[27] = second compound 0.316 µM, first compound 0.316 µM
[28] = second compound 0.316 µM, first compound 1 µM
[29] = second compound 0.316 µM, first compound 3.16 µM
[30] = second compound 0.316 µM, first compound 10 µM
[31] = second compound 1 µM, first compound 0.0316 µM
[32] = second compound 1 µM, first compound 0.1 µM
[33] = second compound 1 µM, first compound 0.316 µM
[34] = second compound 1 µM, first compound 1 µM
[35] = second compound 1 µM, first compound 3.16 µM
[36] = second compound 1 µM, first compound 10 µM
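Note: spheroids exposed to compounds for seven days before readout.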

## CC1(O)CCCC1n1c(=O)c(C(F)F)cc2cnc(NC3CCN(S(C)(=O)=O)CC3)nc21 (stereo unspecified) + C=CC(=O)N1CCN(c2nc(OCC3CCCN3C)nc3c(F)c(-c4nc(N)cc(C)c4C(F)(F)F)c(Cl)cc23)C(C)C1
Second compound 0.00316 µM
  IC50: 98.8 nM
Second compound 0.01 µM
  IC50: 86.6 nM
Second compound 0.0316 µM
  IC50: 95.4 nM
Second compound 0.1 µM
  IC50: 77.1 nM
Second compound 0.316 µM
  IC50: 76.9 nM
Second compound 1 µM
  IC50: 67.5 nM
[1]
  viability, T/C: 81.1%
[2]
  viability, T/C: 49.7%
[3]
  viability, T/C: 17%
[4]
  viability, T/C: 24.2%
[5]
  viability, T/C: 33.9%
[6]
  viability, T/C: 4.64%
[7]
  viability, T/C: 89.5%
[8]
  viability, T/C: 45.1%
[9]
  viability, T/C: 21.4%
[10]
  viability, T/C: 20.8%
[11]
  viability, T/C: 28.8%
[12]
  viability, T/C: 4.18%
[13]
  viability, T/C: 73.4%
[14]
  viability, T/C: 49%
[15]
  viability, T/C: 20.9%
[16]
  viability, T/C: 20.7%
[17]
  viability, T/C: 29.1%
[18]
  viability, T/C: 5.27%
[19]
  viability, T/C: 79.3%
[20]
  viability, T/C: 42.1%
[21]
  viability, T/C: 20.4%
[22]
  viability, T/C: 24.4%
[23]
  viability, T/C: 29.3%
[24]
  viability, T/C: 4.69%
[25]
  viability, T/C: 74.3%
[26]
  viability, T/C: 42.8%
[27]
  viability, T/C: 17.7%
[28]
  viability, T/C: 21.5%
[29]
  viability, T/C: 33%
[30]
  viability, T/C: 5.33%
[31]
  viability, T/C: 69.4%
[32]
  viability, T/C: 39.9%
[33]
  viability, T/C: 19.7%
[34]
  viability, T/C: 22.5%
[35]
  viability, T/C: 32.5%
[36]
  viability, T/C: 6.56%

## CCC(CC)c1cc(NC2CCC(N)C2)n2nccc2n1 (stereo unspecified) + C=CC(=O)N1CCN(c2nc(OCC3CCCN3C)nc3c(F)c(-c4nc(N)cc(C)c4C(F)(F)F)c(Cl)cc23)C(C)C1
Second compound 0.00316 µM
  IC50: 1580 nM
Second compound 0.01 µM
  IC50: 1650 nM
Second compound 0.0316 µM
  IC50: 1700 nM
Second compound 0.1 µM
  IC50: 1720 nM
Second compound 0.316 µM
  IC50: 1720 nM
Second compound 1 µM
  IC50: 1770 nM
[1]
  viability, T/C: 98%
[2]
  viability, T/C: 100%
[3]
  viability, T/C: 109%
[4]
  viability, T/C: 80.4%
[5]
  viability, T/C: 2.73%
[6]
  viability, T/C: 4.78%
[7]
  viability, T/C: 106%
[8]
  viability, T/C: 100%
[9]
  viability, T/C: 110%
[10]
  viability, T/C: 86.5%
[11]
  viability, T/C: 2.18%
[12]
  viability, T/C: 3.83%
[13]
  viability, T/C: 107%
[14]
  viability, T/C: 88.6%
[15]
  viability, T/C: 124%
[16]
  viability, T/C: 89.4%
[17]
  viability, T/C: 2.68%
[18]
  viability, T/C: 4.52%
[19]
  viability, T/C: 101%
[20]
  viability, T/C: 97.9%
[21]
  viability, T/C: 112%
[22]
  viability, T/C: 91.3%
[23]
  viability, T/C: 2.71%
[24]
  viability, T/C: 5.16%
[25]
  viability, T/C: 101%
[26]
  viability, T/C: 102%
[27]
  viability, T/C: 101%
[28]
  viability, T/C: 90.3%
[29]
  viability, T/C: 3.2%
[30]
  viability, T/C: 6.46%
[31]
  viability, T/C: 94.4%
[32]
  viability, T/C: 95.8%
[33]
  viability, T/C: 96.8%
[34]
  viability, T/C: 94.6%
[35]
  viability, T/C: 3.19%
[36]
  viability, T/C: 6.78%

## CCN1CCN(Cc2ccc(Nc3ncc(F)c(-c4cc(F)c5nc(C)n(C(C)C)c5c4)n3)nc2)CC1 + C=CC(=O)N1CCN(c2nc(OCC3CCCN3C)nc3c(F)c(-c4nc(N)cc(C)c4C(F)(F)F)c(Cl)cc23)C(C)C1
Second compound 0.00316 µM
  IC50: 210 nM
Second compound 0.01 µM
  IC50: 181 nM
Second compound 0.0316 µM
  IC50: 152 nM
Second compound 0.1 µM
  IC50: 210 nM
Second compound 0.316 µM
  IC50: 223 nM
Second compound 1 µM
  IC50: 306 nM
Second compound 0.00316 µM, first compound 0.00316 µM
  viability, T/C: 87.5%
Second compound 0.00316 µM, first compound 0.01 µM
  viability, T/C: 77.2%
[1]
  viability, T/C: 68.7%
[2]
  viability, T/C: 56.6%
[3]
  viability, T/C: 45.4%
[4]
  viability, T/C: 40.4%
Second compound 0.01 µM, first compound 0.00316 µM
  viability, T/C: 91.4%
Second compound 0.01 µM, first compound 0.01 µM
  viability, T/C: 79.8%
[7]
  viability, T/C: 73.3%
[8]
  viability, T/C: 52.1%
[9]
  viability, T/C: 46.8%
[10]
  viability, T/C: 40.2%
Second compound 0.0316 µM, first compound 0.00316 µM
  viability, T/C: 89.4%
Second compound 0.0316 µM, first compound 0.01 µM
  viability, T/C: 81.8%
[13]
  viability, T/C: 73.6%
[14]
  viability, T/C: 53.6%
[15]
  viability, T/C: 42.5%
[16]
  viability, T/C: 36.6%
Second compound 0.1 µM, first compound 0.00316 µM
  viability, T/C: 82.1%
Second compound 0.1 µM, first compound 0.01 µM
  viability, T/C: 78%
[19]
  viability, T/C: 70.7%
[20]
  viability, T/C: 59%
[21]
  viability, T/C: 44.6%
[22]
  viability, T/C: 38.7%
Second compound 0.316 µM, first compound 0.00316 µM
  viability, T/C: 85.6%
Second compound 0.316 µM, first compound 0.01 µM
  viability, T/C: 79.2%
[25]
  viability, T/C: 77%
[26]
  viability, T/C: 58.9%
[27]
  viability, T/C: 46.3%
[28]
  viability, T/C: 39.8%
Second compound 1 µM, first compound 0.00316 µM
  viability, T/C: 95.1%
Second compound 1 µM, first compound 0.01 µM
  viability, T/C: 75.4%
[31]
  viability, T/C: 73.6%
[32]
  viability, T/C: 57.5%
[33]
  viability, T/C: 46.1%
[34]
  viability, T/C: 45.9%
